Test results published in US20240350508A1, “USE OF EZH2 INHIBITORS FOR THE TREATMENT OF AORTIC VALVE STENOSIS” (INSERM (INSTITUT NATIONAL DE LA SANTÉ ET DE LA RECHERCHE …, priority 2021, published 2024).

Legend:
[1] = test system: Human Valvular Interstitial Cells (hVICs); experiment: human monocytes secretome-induced hVICs calcification (o-cresolphthalein complexone calcium measurement); type: cell-based
Description: Human aortic valves form AS patients who underwent aortic valve surgical replacement were collected at Rouen University Hospital, starting on May 2 2016, after agreement of The CPP Nord-Ouest I (RCB: 2016-A00137-44). Human Valvular Interstitial Cells (hVICs) were isolated and cultured as already described. (Morvan, Arangalage et al. 2019) Briefly, aortic valve leaflets previously collected and washed in PBS containing antibiotics were cut into pieces and digested with type I collagenase (0.22 U/mg) for 3 hours at 37° C. Digested valves are filters on 70 μm cell strainers to remove undigested valve parts and obtain a homogenous cell suspension resuspended in complete smooth muscle cell basal 2 medium (PromoCell, Heidelberg, Germany) with 10% Fetal Bovine Serum (FBS) Penicillin/Streptomycin (P/S, Sigma-Aldrich Cat #P4333). Cell suspension is then seeded into rat type collagen I (3 mg/ml, Gibco, Cat #A1048301) coated flask and incubated at 37° C., 5% CO2 for several days until reaching cell confluency. At this step hVICs are obtained and cultured in DMEM (Dulbecco's modified Eagle's medium, Gibco, Cat #41966-029) with 10% FBS and P/S until passage 4. […]
(§1) Previously isolated hVICs were treated for 10 days with human monocytes and M1 macrophages CM diluted v/v with DMEM (Gibco, Cat #41966-029) in the presence or not of inorganic […] (Pi) at a final concentration up to 1.9 mM (0.9 mM of […] already present in DMEM). Treatment with conditioned medium was renewed every 2 days and calcium content in each well was measured with the o-cresolphthalein complexone colorimetric method. […]
(§2) Data are obtained from indicated number of hVICs isolated from distinct patients. […] Data are expressed as mean values of control (DMSO (vehicle) treated monocytes or M1 macrophages)±SEM. When indicated, statistical significance was determined by non-parametric Kruskal-Wallis test followed by Dunns post-hoc test using Graphpad Prism 5 software. The use of non-parametric Kruskal-Wallis test was determined depending Shapiro-Wilk normality test data distribution.

[2] = test system: Human Valvular Interstitial Cells (hVICs); experiment: human M1 macrophages secretome-induced hVICs calcification (o-cresolphthalein complexone calcium measurement); type: cell-based; settings: M1 macrophages pre-treatment (5 μM, 72 h); n=1 VICs patient in triplicates, CM from n=1 volunteer; FIG. 4
Description: Human aortic valves form AS patients who underwent aortic valve surgical replacement were collected at Rouen University Hospital, starting on May 2 2016, after agreement of The CPP Nord-Ouest I (RCB: 2016-A00137-44). Human Valvular Interstitial Cells (hVICs) were isolated and cultured as already described. (Morvan, Arangalage et al. 2019) Briefly, aortic valve leaflets previously collected and washed in PBS containing antibiotics were cut into pieces and digested with type I collagenase (0.22 U/mg) for 3 hours at 37° C. […]
as §1
as §2, with “The use of non-parametric Kruskal-Wallis test was determined depending Shapiro-Wilk normality test data distribution.” left out

Compound: CC[C@H](C)n1cc(C)c2c(C(=O)NCc3c(C)cc(C)[nH]c3=O)cc(-c3ccc(N4CCNCC4)nc3)cc21 [GSK-126]
- CAVD patient monocytes secretome-induced hVICs calcification ([1]; monocytes from CAVD patients pre-treated with 5 μM for 72 h, CM1, hVICs with 1.9 mM Pi for 10 days, vs vehicle (DMSO), FIG. 2): significantly reduced
- volunteer monocytes secretome-induced hVICs calcification ([1]; monocytes from volunteers pre-treated with 5 μM for 72 h, CM1, hVICs with 1.9 mM Pi for 10 days, vs vehicle (DMSO), FIG. 1): significantly reduced
- volunteer monocytes secretome-induced hVICs calcification 24 h after monocytes pre-treatment ([1]; monocytes from volunteers, 72 h pre-treatment then new conditioned medium for 24 h (CM2) in the absence of inhibitor, 1.9 mM Pi, FIG. 3): the same result was obtained
- M1 secretome-induced hVICs calcification [2]: reduced
